Measurements reported in patent US11524938B2, “Aromatic sulfonamide derivatives” (Bayer Pharma Aktiengesellschaft, priority 2016, dated 2022).
pIC50: −log10 of the molar value.

Biological target: T1, human P2X4 (Homo sapiens, UniProt Q99571)
T1 sequence (Q99571 1-388): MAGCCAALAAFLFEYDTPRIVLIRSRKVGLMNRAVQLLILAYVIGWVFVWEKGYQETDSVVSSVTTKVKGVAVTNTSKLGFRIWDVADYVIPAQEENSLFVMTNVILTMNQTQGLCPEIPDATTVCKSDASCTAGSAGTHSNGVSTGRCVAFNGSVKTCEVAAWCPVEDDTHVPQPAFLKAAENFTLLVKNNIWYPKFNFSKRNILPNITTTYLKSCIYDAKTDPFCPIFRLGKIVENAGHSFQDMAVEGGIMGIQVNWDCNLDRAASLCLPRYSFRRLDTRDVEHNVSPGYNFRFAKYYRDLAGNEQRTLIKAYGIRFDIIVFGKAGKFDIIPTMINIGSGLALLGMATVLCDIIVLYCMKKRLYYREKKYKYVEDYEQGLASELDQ
Assay: Human P2X4 HEK Cell FLIPR Assay
Assay type: cell-based
Conditions: agonist Bz-ATP at EC80; for Emax: HEK293, HEK293 cells, percentage of maximal inhibition, read-out: Human P2X4 HEK Cells (FLIPR Assay) avg Efficacy [%]; for pIC50: HEK293 cells, individual values listed where some fall outside detection range
Summary of the method: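 HEK293 cells stably expressing human P2X4, Fluo8-AM loaded 30 min at 37° C, then compound 30 min at room temperature (0.5% DMSO, pH 7.4 buffer with 1.8 mM CaCl2). Bz-ATP at its daily-determined EC80 added; calcium fluorescence read over 120 sec; IC50 from peak RFU normalized to agonist control, triplicates.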

Compound: Cc1nc(-c2ccc(NC(=O)Cc3ccccc3Cl)cc2S(N)(=O)=O)cs1 [Example 420, 2-(2-Chlorophenyl)-N-[4-(2-methyl-1,3-thiazol-4-yl)-3-sulfamoylphenyl]acetamide]
- Emax: 75%
- pIC50: 7.16

Compound: NS(=O)(=O)c1cc(NC(=O)Cc2ccc(C(F)F)cc2)ccc1-c1ccc(Cl)nc1 [Example 473, N-[4-(6-Chloropyridin-3-yl)-3-sulfamoylphenyl]-2-[4-(difluoromethyl)phenyl]acetamide]
- Emax: 93%
- pIC50: 6.28

Compound: CN(C(=O)Cc1ccccc1Cl)c1ccc(-n2cc(C(F)(F)F)cn2)c(S(N)(=O)=O)c1 [Example 240, 2-(2-Chlorophenyl)-N-methyl-N-{3-sulfamoyl-4-[4-(trifluoromethyl)-1H-pyrazol-1-yl]phenyl}acetamide]
- Emax: 93%
- pIC50: 5.46

Compound: N#Cc1cc(NC(=O)Cc2ccccc2Cl)cc(S(N)(=O)=O)c1-n1cc(C(F)(F)F)cn1 [Example 244, 2-(2-Chlorophenyl)-N-{3-cyano-5-sulfamoyl-4-[4-(trifluoromethyl)-1H-pyrazol-1-yl]-phenyl}acetamide]
- Emax: 73%
- pIC50: 6.85

Compound: NS(=O)(=O)c1cc(NC(=O)Cc2ccccc2C(F)F)ccc1-n1cc(C(F)(F)F)cn1 [Example 21, 2-[2-(Difluoromethyl)phenyl]-N-{3-sulfamoyl-4-[4-(trifluoromethyl)-1H-pyrazol-1-yl]phenyl}acetamide]
- Emax: 67%
- pIC50: 6.77

Compound: NS(=O)(=O)c1cc(NC(=O)Cc2ccccc2O)ccc1-n1cc(Cl)cn1 [Example 85, N-[4-(4-Chloro-1H-pyrazol-1-yl)-3-sulfamoylphenyl]-2-(2-hydroxyphenyl)acetamide]
- Emax: 92%
- pIC50: 7.38

Compound: NS(=O)(=O)c1cc(NC(=O)Cc2cccc(F)c2)ccc1-c1ccc(Cl)nc1 [Example 464, N-[4-(6-Chloropyridin-3-yl)-3-sulfamoylphenyl]-2-(3-fluorophenyl)acetamide]
- Emax: 92%
- pIC50: 6.19

Compound: CCNc1ncc(-c2ccc(NC(=O)Cc3ccccc3Cl)cc2S(N)(=O)=O)cn1 [Example 312, 2-(2-Chlorophenyl)-N-{4-[2-(ethylamino)pyrimidin-5-yl]-3-sulfamoylphenyl}-acetamide]
- Emax: 69%
- pIC50: 7.43

Compound: NS(=O)(=O)c1c(-c2cnn(C(F)F)c2)ccc(NC(=O)Cc2ccccc2Cl)c1C(F)(F)F [Example 489, 2-(2-Chlorophenyl)-N-{4-[1-(difluoromethyl)-1H-pyrazol-4-yl]-3-sulfamoyl-2-(trifluoromethyl)phenyl}acetamide]
- Emax: 83%
- pIC50: 5.69

Compound: NS(=O)(=O)c1cc(NC(=O)Cc2ccccc2Cl)ccc1-c1cccc(C(F)(F)F)n1 [Example 295, 2-(2-Chlorophenyl)-N-{3-sulfamoyl-4-[6-(trifluoromethyl)pyridin-2-yl]phenyl}acetamide]
- Emax: 9%
- pIC50: < 4.60

Compound: NS(=O)(=O)c1cc(NC(=O)Cc2cc(F)cc(F)c2)ccc1-n1cc(Cl)cn1 [Example 83, N-[4-(4-Chloro-1H-pyrazol-1-yl)-3-sulfamoylphenyl]-2-(3,5-difluorophenyl)acetamide]
- Emax: 36%
- pIC50: < 4.60

Compound: CC(C)n1cc(-c2ccc(NC(=O)Cc3ccccc3Cl)cc2S(N)(=O)=O)cn1 [Example 359, 2-(2-Chlorophenyl)-N-{4-[1-(propan-2-yl)-1H-pyrazol-4-yl]-3-sulfamoylphenyl}-acetamide]
- Emax: 84%
- pIC50: 7.11

Compound: NS(=O)(=O)c1cc(NC(=O)Cc2ccccc2Cl)cnc1-c1cnn(C(F)F)c1 [Example 297, 2-(2-Chlorophenyl)-N-{6-[1-(difluoromethyl)-1H-pyrazol-4-yl]-5-sulfamoylpyridin-3-yl}acetamide]
- Emax: 87%
- pIC50: 7.49

Compound: Cc1ccc(CC(=O)Nc2ccc(-c3nnc(C)o3)c(S(N)(=O)=O)c2)cc1 [Example 526, N-[4-(5-Methyl-1,3,4-oxadiazol-2-yl)-3-sulfamoylphenyl]-2-(4-methylphenyl)acetamide]
- Emax: 51%
- pIC50: 6.48

Compound: NS(=O)(=O)c1cc(NC(=O)Cc2ccccc2Cl)ccc1-c1cncc(F)c1 [Example 327, 2-(2-Chlorophenyl)-N-[4-(5-fluoropyridin-3-yl)-3-sulfamoylphenyl]acetamide]
- Emax: 94%
- pIC50: 7.96

Compound: Cc1nc(-c2ccc(NC(=O)Cc3ccccc3Cl)cc2S(N)(=O)=O)cn1C [Example 320, 2-(2-Chlorophenyl)-N-[4-(1,2-dimethyl-1H-imidazol-4-yl)-3-sulfamoylphenyl]acetamide]
- Emax: 51%
- pIC50: < 4.60

Compound: CC(C)OCCn1cc(-c2ccc(NC(=O)Cc3ccccc3Cl)cc2S(N)(=O)=O)cn1 [Example 286, 2-(2-Chlorophenyl)-N-(4-{1-[2-(propan-2-yloxy)ethyl]-1H-pyrazol-4-yl}-3-sulfamoylphenyl)acetamide]
- Emax: 87%
- pIC50: 8.22

Compound: Cc1c(C#N)cnn1-c1ccc(NC(=O)Cc2ccccc2Cl)cc1S(N)(=O)=O [Example 547, 2-(2-Chlorophenyl)-N-[4-(4-cyano-5-methyl-1H-pyrazol-1-yl)-3-sulfamoylphenyl]acetamide]
- Emax: 94%
- pIC50: 7.22

Compound: NS(=O)(=O)c1cc(NC(=O)Cc2ccccc2C(F)F)ccc1-n1cc(Cl)cn1 [Example 49, N-[4-(4-Chloro-1H-pyrazol-1-yl)-3-sulfamoylphenyl]-2-[2-(difluoromethyl)-phenyl]acetamide]
- Emax: 94%
- pIC50: 6.87

Compound: CCOc1ccccc1CC(=O)Nc1ccc(-n2cc(F)cn2)c(S(N)(=O)=O)c1 [Example 156, 2-(2-Ethoxyphenyl)-N-[4-(4-fluoro-1H-pyrazol-1-yl)-3-sulfamoylphenyl]acetamide]
- Emax: 94%
- pIC50: 6.61

Compound: Cc1nn(-c2ccc(NC(=O)Cc3ccccc3Cl)cc2S(N)(=O)=O)cc1C#N [Example 548, 2-(2-Chlorophenyl)-N-[4-(4-cyano-3-methyl-1H-pyrazol-1-yl)-3-sulfamoylphenyl]acetamide]
- Emax: 94%
- pIC50: 8.30

Compound: C[C@H]1CC[C@H](C)N1c1cnn(-c2ccc(NC(=O)Cc3ccccc3Cl)cc2S(N)(=O)=O)c1 (single isomer, unassigned) [Example 512, 2-(2-Chlorophenyl)-N-(4-{4-[(trans)-2,5-dimethylpyrrolidin-1-yl]-1H-pyrazol-1-yl}-3-sulfamoylphenyl)acetamide]
- Emax: 76%
- pIC50: 5.37

Compound: COc1ccc(CC(=O)Nc2ccc(-n3cc(C(F)(F)F)cn3)c(S(N)(=O)=O)c2)cc1 [Example 121, 2-(4-Methoxyphenyl)-N-{3-sulfamoyl-4-[4-(trifluoromethyl)-1H-pyrazol-1-yl]phenyl}-acetamide]
- Emax: 70%
- pIC50: 6.53

Compound: NS(=O)(=O)c1cc(NC(=O)Cc2ccccc2Cl)ccc1-c1ccns1 [Example 496, 2-(2-Chlorophenyl)-N-[3-sulfamoyl-4-(1,2-thiazol-5-yl)phenyl]acetamide]
- Emax: 87%
- pIC50: 7.66

Compound: NS(=O)(=O)c1cc(NC(=O)Cc2cc(F)c(F)cc2Cl)ccc1-n1cc(Cl)cn1 [Example 93, 2-(2-Chloro-4,5-difluorophenyl)-N-[4-(4-chloro-1H-pyrazol-1-yl)-3-sulfamoylphenyl]-acetamide]
- Emax: 73%
- pIC50: 7.13

Compound: NS(=O)(=O)c1cc(NC(=O)Cc2ccccc2Cl)ccc1-c1cnsc1 [Example 426, 2-(2-Chlorophenyl)-N-[3-sulfamoyl-4-(1,2-thiazol-4-yl)phenyl]acetamide]
- Emax: 86%
- pIC50: 7.62

Compound: NS(=O)(=O)c1cc(NC(=O)Cc2cc(F)cc(F)c2)ccc1-n1cc(F)cn1 [Example 146, 2-(3,5-Difluorophenyl)-N-[4-(4-fluoro-1H-pyrazol-1-yl)-3-sulfamoylphenyl]acetamide]
- Emax: 66%
- pIC50: 6.44

Compound: COc1cc(-c2ccc(NC(=O)Cc3ccccc3Cl)cc2S(N)(=O)=O)cnc1Cl [Example 332, N-[4-(6-Chloro-5-methoxypyridin-3-yl)-3-sulfamoylphenyl]-2-(2-chlorophenyl)-acetamide]
- Emax: 89%
- pIC50: 6.49

Compound: COc1ccccc1CC(=O)Nc1ccc(-n2cc(C(F)(F)F)cn2)c(S(N)(=O)=O)c1 [Example 112, 2-(2-Methoxyphenyl)-N-{3-sulfamoyl-4-[4-(trifluoromethyl)-1H-pyrazol-1-yl]phenyl}-acetamide]
- Emax: 62%
- pIC50: 6.58

Compound: NS(=O)(=O)c1cc(NC(=O)Cc2ccccc2Cl)ccc1-n1cccc(Cl)c1=O [Example 4, N-[4-(3-Chloro-2-oxopyridin-1(2H)-yl)-3-sulfamoylphenyl]-2-(2-chlorophenyl)-acetamide]
- Emax: 83%
- pIC50: 6.59

Compound: NS(=O)(=O)c1cc(NC(=O)Cc2ccc(Cl)cc2Cl)ccc1-n1cc(C(F)(F)F)nn1 [Example 417, 2-(2,4-Dichlorophenyl)-N-{3-sulfamoyl-4-[4-(trifluoromethyl)-1H-1,2,3-triazol-1-yl]phenyl}acetamide]
- Emax: 68%
- pIC50: 7.29

Compound: NS(=O)(=O)c1cc(NC(=O)Cc2ccccc2Br)ccc1-n1cc(C(F)(F)F)cn1 [Example 117, 2-(2-Bromophenyl)-N-{3-sulfamoyl-4-[4-(trifluoromethyl)-1H-pyrazol-1-yl]phenyl}-acetamide]
- Emax: 66%
- pIC50: 6.99
